Read-outs that look alike come from different tables or passages of the source. A value given as a limit tells only on which side of the number the result lay.

Holding throughout (assay type): cell-based
One test concerns SW480 (colon cancer). Nature of the test: Antiproliferative activity (CCK-8 cell viability), SW480. Particulars: Homo sapiens, 72 h; for inhibition at 3.3 µM: Compound concentration: 3.3 μM; for inhibition at 10 µM: Compound concentration: 10 μM; for inhibition at 30 µM: Compound concentration: 30 μM. In outline: (§1)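 Growth inhibition graded in bands from percent viability against DMSO vehicle, read as CCK-8 absorbance at 450 nm. Compound tested at 3.3, 10 or 30 μM for 72 h, 37 °C; media contained 10% FBS: DMEM for HepG2/SW480, MEM for HeLa, F-12K for A549.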

The test system of test [1] is A431 (epidermoid carcinoma). Briefly: Antiproliferative activity (CCK-8 cell viability), A431. Conditions: Homo sapiens, 72 h, read-out: Antiproliferative activity in cancerous cells, A431 (inhibition of cell growth); for inhibition at 3.3 µM: A-431, Compound concentration: 3.3 μM; for inhibition at 10 µM: A-431, Compound concentration: 10 μM. In outline:
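This growth inhibition assay used A431 cells maintained in Dulbecco's modified Eagle's medium plus 10% fetal bovine serum. Cells were seeded in 96-well plates, treated with compound for 72 h at 37° C., and then given 10 μL CCK-8 solution. After a further 4 h, absorbance was read at 450 nm.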

For the next test, the system named is HeLa (cervical cancer). Briefly: Antiproliferative activity (CCK-8 cell viability), HeLa. Particulars: Homo sapiens, 72 h, read-out: Antiproliferative activity in cancerous cells, HELA (inhibition of cell growth); for inhibition at 3.3 µM: Compound concentration: 3.3 μM; for inhibition at 10 µM: Compound concentration: 10 μM. The gist of the method:
as §1

The subject of the next test is HepG2 (liver cancer). Briefly: Antiproliferative activity (CCK-8 cell viability), HepG2. Particulars: Homo sapiens, 72 h; for inhibition at 3.3 µM: Compound concentration: 3.3 μM; for inhibition at 10 µM: Compound concentration: 10 μM; for inhibition at 30 µM: Compound concentration: 30 μM. The gist of the method: as §1
Test [2] concerns A549 (lung adenocarcinoma). Briefly: Antiproliferative activity (CCK-8 cell viability), A549. Conditions: Homo sapiens, 72 h; for inhibition at 3.3 µM: Compound concentration: 3.3 μM; for inhibition at 10 µM: Compound concentration: 10 μM; for inhibition at 30 µM: Compound concentration: 30 μM. In outline:
as §1

Test [3] has as its system MDA-MB-231 (breast cancer). Nature of the test: Antiproliferative activity (CCK-8 cell viability), MDA-MB-231. Particulars: Homo sapiens, 72 h; for inhibition at 3.3 µM: Compound concentration: 3.3 μM; for inhibition at 10 µM: Compound concentration: 10 μM; for inhibition at 30 µM: Compound concentration: 30 μM. The gist of the method: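 Growth inhibition of human MDA-MB-231 breast cancer cells was assessed with a Cell Counting Kit-8. Cells cultured in DMEM plus 10% FBS were seeded at 2,000-5,000 cells/well, treated after attachment, and kept 72 h at 37° C. CCK-8 solution (10 μL) was added for 4 h, and absorbance at 450 nm was compared with DMSO-treated controls.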

The subject of test [4] is B16F10 (malignant melanoma). Nature of the test: Antiproliferative activity (CCK-8 cell viability), B16F10. Conditions: Mus musculus, 72 h; for inhibition at 3.3 µM: B16-F10, Compound concentration: 3.3 μM; for inhibition at 10 µM: B16-F10, Compound concentration: 10 μM; for inhibition at 30 µM: B16-F10, Compound concentration: 30 μM. In outline:
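Cell growth inhibition was measured in B16F10 malignant melanoma cells with a Cell Counting Kit-8 viability assay. Cells were maintained in DMEM plus 10% fetal bovine serum, seeded at 2,000-5,000 cells/well in 96-well plates, and treated for 72 h at 37° C. Viability was expressed relative to DMSO-treated vehicle control wells.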

Where [5] appears, read: read-out: Antiproliferative activity in cancerous cells, SW480 (inhibition of cell growth).
The mark [6] stands for this setting: read-out: Antiproliferative activity in cancerous cells, HepG2 (inhibition of cell growth).
The mark [7] stands for this setting: read-out: Antiproliferative activity in cancerous cells, A549 (inhibition of cell growth).
The mark [8] stands for this setting: read-out: Antiproliferative activity in cancerous cells, MDA-MB-231 (inhibition of cell growth).
The mark [9] stands for this setting: read-out: Antiproliferative activity in cancerous cells, B16F10 (inhibition of cell growth).
[10] abbreviates: read-out: Antiproliferative activity in cancerous cells, SW480.

With `CC1=C(CC(=O)O)c2cc(F)ccc2/C1=C\c1ccc(Oc2ccc(I)cc2)cc1` [C57, (Z)-2-(5-Fluoro-1-(4-(4-iodophenoxy)benzylidene)-2-methyl-1H-inden-3-yl)acetic acid], the inhibition at 3.3 µM was under 30% with SW480 (colon cancer) (setting [5]); 30 to 50% in test [1]; under 30% in the test on HeLa (cervical cancer); 30 to 50% in the test with HepG2 (liver cancer) (setting [6]); 30 to 50% in test [2] (setting [7]); under 30% in test [3] (setting [8]). For the same compound, the inhibition at 3.3 µM in test [4] (setting [9]) was at least 50%. The inhibition at 10 µM (in the test on SW480 (colon cancer) (setting [5]); in test [1]; in the test on HeLa (cervical cancer); in the test on HepG2 (liver cancer) (setting [6]); in test [2] (setting [7]); in test [3] (setting [8])) was at least 50% throughout. The inhibition at 10 µM in test [4] (setting [9]) was at least 50%.

On to `COc1ccc(Oc2ccc(/C=C3/C(C)=C(CC(=O)O)c4cc(Cl)ccc43)cc2)cc1` [C82, (Z)-2-(5-Chloro-1-(4-(4-methoxyphenoxy)benzylidene)-2-methyl-1H-inden-3-yl)acetic acid], for which the inhibition at 3.3 µM with SW480 (colon cancer) (setting [5]) is under 30%; in test [1], at least 50%; in the test on HeLa (cervical cancer), under 30%; in the test on HepG2 (liver cancer) (setting [6]) it was under 30%; in test [2] (setting [7]), 30 to 50%; in test [3] (setting [8]), at least 50%. The inhibition at 3.3 µM in test [4] (setting [9]) was at least 50%. The inhibition at 10 µM in the test with SW480 (colon cancer) (setting [5]) is under 30%; in test [1] it was at least 50%; with HeLa (cervical cancer), at least 50%; in the test on HepG2 (liver cancer) (setting [6]), at least 50%; in test [2] (setting [7]), at least 50%; in test [3] (setting [8]) it was at least 50%. Further, the inhibition at 10 µM in test [4] (setting [9]) is at least 50%. The inhibition at 30 µM with SW480 (colon cancer) (setting [10]) lay in the range of 30 to 50%.

For the compound `COc1ccc(Oc2cccc(/C=C3/C(C)=C(CC(=O)O)c4cc(F)ccc43)c2)cc1Cl` [C102, (Z)-2-(1-(3-(3-Chloro-4-methoxyphenoxy)benzylidene)-5-fluoro-2-methyl-1H-inden-3-yl)acetic acid], the inhibition at 3.3 µM with SW480 (colon cancer) (setting [5]) is under 30%; in test [1], at least 50%; with HeLa (cervical cancer), under 30%; in the test on HepG2 (liver cancer) (setting [6]) it was at least 50%; in test [2] (setting [7]), at least 50%; in test [3] (setting [8]) it was at least 50%. Besides, the inhibition at 3.3 µM in test [4] (setting [9]) is at least 50%. The inhibition at 10 µM (in the test on SW480 (colon cancer) (setting [5]); in test [1]; in the test on HeLa (cervical cancer); in the test with HepG2 (liver cancer) (setting [6]); in test [2] (setting [7]); in test [3] (setting [8])) was at least 50% in each case. The inhibition at 10 µM in test [4] (setting [9]) is at least 50%.

For the compound `CCc1ccc2c(c1)/C(=C\c1ccc(COc3ccccc3)cc1)C(C)=C2CC(=O)O` [B48, (Z)-2-(6-Ethyl-2-methyl-1-(4-(phenoxymethyl)benzylidene)-1H-inden-3-yl)acetic acid], the inhibition at 3.3 µM in the test with SW480 (colon cancer) (setting [5]) was under 30%; in test [1] it was at least 50%; in the test on HeLa (cervical cancer) it was 30 to 50%; in the test on HepG2 (liver cancer) (setting [6]), under 30%; in test [2] (setting [7]), under 30%; in test [3] (setting [8]), under 30%. For the same compound, in test [4] (setting [9]), the inhibition at 3.3 µM is 30 to 50%. Moreover, the inhibition at 10 µM is under 30% in the test with SW480 (colon cancer) (setting [5]); at least 50% in test [1]; at least 50% in the test with HeLa (cervical cancer); under 30% in the test with HepG2 (liver cancer) (setting [6]); 30 to 50% in test [2] (setting [7]); under 30% in test [3] (setting [8]). Besides, the inhibition at 10 µM in test [4] (setting [9]) was in the range of 30 to 50%. In addition, the inhibition at 30 µM with SW480 (colon cancer) (setting [10]) is under 30%; with HepG2 (liver cancer) (read-out: Antiproliferative activity in cancerous cells, HepG2), under 30%; in test [2] (read-out: Antiproliferative activity in cancerous cells, A549), 30 to 50%; in test [3] (read-out: Antiproliferative activity in cancerous cells, MDA-MB-231), under 30%; in test [4] (read-out: Antiproliferative activity in cancerous cells, B16F10), 30 to 50%.

In the case of `CC1=C(CC(=O)O)c2cc(F)ccc2/C1=C/c1ccc(Oc2ccc(F)cc2Cl)cc1` [E25, (E)-2-(1-(4-(2-Chloro-4-fluorophenoxy)benzylidene)-5-fluoro-2-methyl-1H-inden-3-yl)acetic acid], the inhibition at 3.3 µM is at least 50% with SW480 (colon cancer) (setting [5]); at least 50% in test [1]; 30 to 50% with HeLa (cervical cancer); under 30% in the test with HepG2 (liver cancer) (setting [6]); under 30% in test [2] (setting [7]); under 30% in test [3] (setting [8]). Moreover, the inhibition at 3.3 µM in test [4] (setting [9]) was in the range of 30 to 50%. Further, the inhibition at 10 µM with SW480 (colon cancer) (setting [5]) is at least 50%; in test [1], at least 50%; with HeLa (cervical cancer), at least 50%; in the test on HepG2 (liver cancer) (setting [6]) it was at least 50%; in test [2] (setting [7]) it was under 30%; in test [3] (setting [8]), under 30%. Moreover, in test [4] (setting [9]), the inhibition at 10 µM is 30 to 50%. Further, the inhibition at 30 µM with SW480 (colon cancer) (setting [5]) is at least 50%; in test [1] (A-431, Compound concentration: 30 μM) it was at least 50%; in the test on HeLa (cervical cancer) (Compound concentration: 30 μM), at least 50%; in the test on HepG2 (liver cancer) (setting [6]), at least 50%; in test [2] (setting [7]) it was at least 50%; in test [3] (setting [8]), at least 50%. Moreover, the inhibition at 30 µM in test [4] (setting [9]) was at least 50%.

For the compound `CCc1ccc2c(c1)C(CC(=O)O)=C(C)/C2=C/c1ccc(COc2ccc(F)cc2)cc1` [B52, (Z)-2-(5-Ethyl-1-(4-((4-fluorophenoxy)methyl)benzylidene)-2-methyl-1H-inden-3-yl)acetic acid], the inhibition at 3.3 µM in the test on SW480 (colon cancer) (setting [5]) was 30 to 50%; in test [1] it was 30 to 50%; in the test with HeLa (cervical cancer), 30 to 50%; in the test with HepG2 (liver cancer) (setting [6]), under 30%; in test [2] (setting [7]), 30 to 50%; in test [3] (setting [8]), at least 50%. The inhibition at 3.3 µM in test [4] (setting [9]) was at least 50%. The inhibition at 10 µM (in the test on SW480 (colon cancer) (setting [5]); in test [1]; with HeLa (cervical cancer); in the test on HepG2 (liver cancer) (setting [6]); in test [2] (setting [7]); in test [3] (setting [8])) was at least 50% each time. Moreover, the inhibition at 10 µM in test [4] (setting [9]) was at least 50%.

The record behind these values is patent US20260184663A1, “INDENE COMPOUNDS, PHARMACEUTICAL COMPOSITIONS THEREOF, AND THEIR THERAPEUTIC APPLICATIONS” (NucMito Pharmaceuticals co. Ltd., priority 2022, published 2026).
